ChEMBL document CHEMBL3352062, “Synthesis and biological evaluation of bile carboxamide derivatives with pro-apoptotic effect on human colon adenocarcinoma cell lines” (Eur J Med Chem, 2014)
Activity calls are given as the source filed them. No cut-off for these calls is given here.

Key:
DLD-1 [1] = test: Antiproliferative activity against human DLD1 cells assessed as reduction in cell viability after 24 to 48 hrs by XTT assay; format: functional, cell-based
HCT-116 [2] = test: Antiproliferative activity against human HCT116 cells assessed as reduction in cell viability after 24 to 48 hrs by XTT assay; format: functional, cell-based
HT-29 [3] = test: Antiproliferative activity against human HT-29 cells assessed as reduction in cell viability after 24 to 48 hrs by XTT assay; format: functional, cell-based
[4] = Antiproliferative activity against human DLD1 cells assessed as reduction in cell viability after 24 hrs by XTT assay; format: functional, cell-based; details: DLD-1, 24 h
[5] = Antiproliferative activity against human HCT116 cells assessed as reduction in cell viability after 24 hrs by XTT assay; format: functional, cell-based; details: HCT-116, 24 h
HT-29 [6] = test: Antiproliferative activity against human HT-29 cells assessed as reduction in cell viability after 24 hrs by XTT assay; format: functional, cell-based; details: HT-29, 24 h
[7] = Cell cycle arrest in human DLD1 cells assessed as accumulation at sub-G1 phase at 30 uM after 24 hrs using propidium iodide by flow cytometry (reference value: 1.73 %); format: functional, cell-based; details: DLD-1
[8] = Cell cycle arrest in human DLD1 cells assessed as accumulation at G0-G1 phase at 30 uM after 24 hrs using propidium iodide by flow cytometry (reference value: 35.37 %); format: functional, cell-based; details: DLD-1
[9] = Cell cycle arrest in human DLD1 cells assessed as accumulation at S phase at 30 uM after 24 hrs using propidium iodide by flow cytometry (reference value: 21.08 %); format: functional, cell-based; details: DLD-1
[10] = Cell cycle arrest in human DLD1 cells assessed as accumulation at G2-M phase at 30 uM after 24 hrs using propidium iodide by flow cytometry (reference value: 39.85 %); format: functional, cell-based; details: DLD-1
[11] = Cell cycle arrest in human HCT116 cells assessed as accumulation at sub-G1 phase at 30 uM after 24 hrs using propidium iodide by flow cytometry (reference value: 1.78 %); format: functional, cell-based; details: HCT-116
[12] = Cell cycle arrest in human HCT116 cells assessed as accumulation at G0-G1 phase at 30 uM after 24 hrs using propidium iodide by flow cytometry (reference value: 42.61 %); format: functional, cell-based; details: HCT-116
[13] = Cell cycle arrest in human HCT116 cells assessed as accumulation at S phase at 30 uM after 24 hrs using propidium iodide by flow cytometry (reference value: 18.80 %); format: functional, cell-based; details: HCT-116
[14] = Cell cycle arrest in human HCT116 cells assessed as accumulation at G2-M phase at 30 uM after 24 hrs using propidium iodide by flow cytometry (reference value: 33.69 %); format: functional, cell-based; details: HCT-116
HT-29 [15] = test: Cell cycle arrest in human HT-29 cells assessed as accumulation at sub-G1 phase at 30 uM after 24 hrs using propidium iodide by flow cytometry (reference value: 3.18 %); format: functional
HT-29 [16] = test: Cell cycle arrest in human HT-29 cells assessed as accumulation at G0-G1 phase at 30 uM after 24 hrs using propidium iodide by flow cytometry (reference value: 43.78 %); format: functional
HT-29 [17] = test: Cell cycle arrest in human HT-29 cells assessed as accumulation at S phase at 30 uM after 24 hrs using propidium iodide by flow cytometry (reference value: 28.28 %); format: functional
HT-29 [18] = test: Cell cycle arrest in human HT-29 cells assessed as accumulation at G2-M phase at 30 uM after 24 hrs using propidium iodide by flow cytometry (reference value: 21.66 %); format: functional
DLD-1 [19] = test: Induction of apoptosis in human DLD1 cells assessed as APO2.7-positive cells at 30 uM after 24 hrs using propidium iodide by flow cytometry (reference value: 1.01 %); format: functional
HCT-116 [20] = test: Induction of apoptosis in human HCT116 cells assessed as APO2.7-positive cells at 30 uM after 24 hrs using propidium iodide by flow cytometry (reference value: 1.19 %); format: functional
HT-29 [21] = test: Induction of apoptosis in human HT-29 cells assessed as APO2.7-positive cells at 30 uM after 24 hrs using propidium iodide by flow cytometry (reference value: 1.11 %); format: functional
DLD-1 [22] = test: Induction of apoptosis in human DLD1 cells assessed as PARP cleavage at 30 uM after 24 hrs using propidium iodide by Western blot analysis; format: functional, cell-based
HCT-116 [23] = test: Induction of apoptosis in human HCT116 cells assessed as PARP cleavage at 30 uM after 24 hrs using propidium iodide by Western blot analysis; format: functional, cell-based
HT-29 [24] = test: Induction of apoptosis in human HT-29 cells assessed as PARP cleavage at 30 uM after 24 hrs using propidium iodide by Western blot analysis; format: functional, cell-based

## C[C@H](CCC(=O)N1CCN(Cc2ccccc2)CC1)[C@H]1CC[C@H]2[C@@H]3CC[C@@H]4C[C@H](O)CC[C@]4(C)[C@H]3CC[C@]12C
DLD-1 [1]
  Activity: Dose-dependent effect
HCT-116 [2]
  Activity: Dose-dependent effect
HT-29 [3]
  Activity: Dose-dependent effect

## C[C@H](CCC(=O)N1CCN(Cc2ccccc2)CC1)[C@H]1CC[C@H]2[C@@H]3[C@H](O)C[C@@H]4C[C@H](O)CC[C@]4(C)[C@H]3CC[C@]12C
[4]
  IC50: 33 µM
[5]
  IC50: 23 µM
HT-29 [6]
  IC50: 36 µM
[7]
  Activity: 10.7%
[8]
  Activity: 40%
[9]
  Activity: 14.1%
[10]
  Activity: 32.2%
[11]
  Activity: 13%
[12]
  Activity: 36.9%
[13]
  Activity: 17.8%
[14]
  Activity: 26.6%
HT-29 [15]
  Activity: 18.13%
HT-29 [16]
  Activity: 49.08%
HT-29 [17]
  Activity: 17.11%
HT-29 [18]
  Activity: 13.63%
DLD-1 [19]
  Activity: 22.54%
HCT-116 [20]
  Activity: 20.33%
HT-29 [21]
  Activity: 8.57%
DLD-1 [22]
  Activity: Active
HCT-116 [23]
  Activity: Active
HT-29 [24]
  Activity: Active

## C[C@H](CCC(=O)N1CCN(Cc2ccccc2)CC1)[C@H]1CC[C@H]2[C@@H]3CC[C@@H]4C[C@H](O)CC[C@]4(C)[C@H]3C[C@H](O)[C@]12C
[4]
  IC50: 26 µM
[5]
  IC50: 22 µM
HT-29 [6]
  IC50: 32 µM
[7]
  Activity: 14.3%
[8]
  Activity: 28.5%
[9]
  Activity: 15.4%
[10]
  Activity: 39%
[11]
  Activity: 14.8%
[12]
  Activity: 33.6%
[13]
  Activity: 18.4%
[14]
  Activity: 28.9%
HT-29 [15]
  Activity: 34.81%
HT-29 [16]
  Activity: 36.89%
HT-29 [17]
  Activity: 15.67%
HT-29 [18]
  Activity: 11.14%
DLD-1 [19]
  Activity: 2.49%
HCT-116 [20]
  Activity: 4.59%
HT-29 [21]
  Activity: 1.26%
DLD-1 [22]
  Activity: Active
HCT-116 [23]
  Activity: Active
HT-29 [24]
  Activity: Active

## C[C@H](CCC(=O)N1CCN(C(c2ccccc2)c2ccc(Cl)cc2)CC1)[C@H]1CC[C@H]2[C@@H]3CC[C@@H]4C[C@H](O)CC[C@]4(C)[C@H]3C[C@H](O)[C@]12C (stereo not given in full)
DLD-1 [1]
  Activity: Dose-dependent effect
HCT-116 [2]
  Activity: Dose-dependent effect
HT-29 [3]
  Activity: Dose-dependent effect

## C[C@H](CCC(=O)N1CCN(C(c2ccccc2)c2ccc(Cl)cc2)CC1)[C@H]1CC[C@H]2[C@@H]3[C@@H](O)C[C@@H]4C[C@H](O)CC[C@]4(C)[C@H]3CC[C@]12C (stereo not given in full)
DLD-1 [1]
  Activity: Dose-dependent effect
HCT-116 [2]
  Activity: Dose-dependent effect
HT-29 [3]
  Activity: Dose-dependent effect

## C[C@H](CCC(=O)N1CCN(C(c2ccc(F)cc2)c2ccc(F)cc2)CC1)[C@H]1CC[C@H]2[C@@H]3[C@H](O)C[C@@H]4C[C@H](O)CC[C@]4(C)[C@H]3CC[C@]12C
DLD-1 [1]
  Activity: Dose-dependent effect
HCT-116 [2]
  Activity: Dose-dependent effect
HT-29 [3]
  Activity: Dose-dependent effect

## C[C@H](CCC(=O)N1CCN(C/C=C/c2ccccc2)CC1)[C@H]1CC[C@H]2[C@@H]3[C@H](O)C[C@@H]4C[C@H](O)CC[C@]4(C)[C@H]3CC[C@]12C
[4]
  IC50: 36 µM
[5]
  IC50: 34 µM
HT-29 [6]
  IC50: 35 µM
[7]
  Activity: 49.8%
[8]
  Activity: 24%
[9]
  Activity: 18.8%
[10]
  Activity: 6.22%
[11]
  Activity: 31.2%
[12]
  Activity: 33%
[13]
  Activity: 22.5%
[14]
  Activity: 11.3%
HT-29 [15]
  Activity: 48.38%
HT-29 [16]
  Activity: 28.49%
HT-29 [17]
  Activity: 18.65%
HT-29 [18]
  Activity: 4.77%
DLD-1 [19]
  Activity: 34.87%
HCT-116 [20]
  Activity: 37.73%
HT-29 [21]
  Activity: 8.79%
DLD-1 [22]
  Activity: Active
HCT-116 [23]
  Activity: Active
HT-29 [24]
  Activity: Active
